Results reported in ChEMBL document CHEMBL1143352, “Structural evolutions of salicylaldoximes as selective agonists for estrogen receptor beta” (J Med Chem, 2009).
Values joined by “and” are separate entries in the source; they are usually repeats but may differ in a detail not shown here. Equal values may be shown once.

Key:
Estrogen receptor beta [1] = target: T1, Estrogen receptor beta (Homo sapiens, UniProt Q92731); assay: Displacement of [3H]estradiol from full-length human estrogen receptor beta by radiometric assay relative to estradiol
T1 sequence (Q92731 whole entry): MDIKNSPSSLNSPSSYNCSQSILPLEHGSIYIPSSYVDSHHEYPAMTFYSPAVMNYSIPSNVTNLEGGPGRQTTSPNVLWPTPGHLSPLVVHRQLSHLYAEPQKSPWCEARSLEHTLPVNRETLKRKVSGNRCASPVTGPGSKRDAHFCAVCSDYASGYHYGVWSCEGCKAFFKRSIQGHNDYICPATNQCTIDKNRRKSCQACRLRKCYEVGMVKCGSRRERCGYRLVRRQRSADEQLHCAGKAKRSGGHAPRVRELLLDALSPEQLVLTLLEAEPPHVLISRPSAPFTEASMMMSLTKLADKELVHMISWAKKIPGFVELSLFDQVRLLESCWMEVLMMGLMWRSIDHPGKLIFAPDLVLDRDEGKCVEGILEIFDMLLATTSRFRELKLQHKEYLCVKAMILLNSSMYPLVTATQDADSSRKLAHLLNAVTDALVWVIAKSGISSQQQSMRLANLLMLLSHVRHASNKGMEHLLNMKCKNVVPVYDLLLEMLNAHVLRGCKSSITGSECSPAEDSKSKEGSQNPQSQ

Homo sapiens = species: Homo sapiens; assay: Ratio of relative binding affinity for full-length human estrogen receptor beta to ratio of relative binding affinity for full length human estrogen receptor alpha
Estrogen receptor beta [2] = target: T1, Estrogen receptor beta; assay: Agonist activity at full-length human estrogen receptor beta expressed in human HEC1 cells assessed as transcriptional activation after 24 hrs by luciferase reporter gene assay relative to estradiol; format: functional, cell-based; details: HEC-1
Estrogen receptor beta [3] = target: T1, Estrogen receptor beta
Estrogen receptor = target: T2, Estrogen receptor (Homo sapiens, UniProt P03372)
T2 sequence (P03372 whole entry): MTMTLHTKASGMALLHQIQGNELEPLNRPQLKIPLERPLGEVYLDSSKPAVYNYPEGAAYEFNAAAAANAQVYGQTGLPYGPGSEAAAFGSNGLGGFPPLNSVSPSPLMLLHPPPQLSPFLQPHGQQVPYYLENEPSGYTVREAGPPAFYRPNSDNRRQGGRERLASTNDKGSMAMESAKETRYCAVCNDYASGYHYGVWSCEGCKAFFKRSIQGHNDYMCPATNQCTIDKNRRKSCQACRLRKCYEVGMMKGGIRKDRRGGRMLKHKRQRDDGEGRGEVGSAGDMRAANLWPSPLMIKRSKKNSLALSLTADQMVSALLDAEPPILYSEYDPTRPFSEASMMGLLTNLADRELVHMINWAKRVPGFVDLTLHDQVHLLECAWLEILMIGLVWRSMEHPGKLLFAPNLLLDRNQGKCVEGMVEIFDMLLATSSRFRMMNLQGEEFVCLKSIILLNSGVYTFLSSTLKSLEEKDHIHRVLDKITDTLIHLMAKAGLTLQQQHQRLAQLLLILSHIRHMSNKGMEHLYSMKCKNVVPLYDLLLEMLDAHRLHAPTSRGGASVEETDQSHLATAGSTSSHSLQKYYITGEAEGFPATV
Description: Agonist activity at full-length human estrogen receptor alpha expressed in human HEC1 cells assessed as transcriptional activation after 24 hrs by luciferase reporter gene assay

How did the Activity (Estrogen receptor beta [1]) turn out when `COc1ccc(-c2ccc(O)c(/C=N/O)c2)cc1F` was run?
Its Activity is 0.013%.

And the Ratio (Homo sapiens)?
Its Ratio is 1.9.

`C/C(=N\O)c1ccc(-c2ccc(O)c(F)c2)c(Cl)c1O` was tested. Which Activity (Estrogen receptor beta [1]) did it give?
The Activity was 0.077%.

What about the Ratio (Homo sapiens) of the same compound?
Its Ratio is 13.

`O/N=C/c1ccc(-c2ccc(O)c(F)c2)c(Cl)c1O` was tested. Which Activity (Estrogen receptor beta [2]) did it give?
The Activity was over 85%.

What about the Activity (Estrogen receptor beta [1]) of the same compound?
Its Activity is 7.01%.

What about the Ki (Estrogen receptor beta [1]) of the same compound?
The Ki was 7.1 nM.

And the EC50 (Estrogen receptor beta [3])?
The EC50 was 4.8 nM.

And the EC50 (Estrogen receptor)?
The EC50 was 19 nM.

And the Ratio (Homo sapiens)?
The Ratio was 62.

For `O/N=C/c1cc(-c2ccc(O)c(F)c2)ccc1O`, which Activity (Estrogen receptor beta [1]) is on record?
The Activity was 0.97%.

And the Ratio (Homo sapiens)?
Its Ratio is 46.

For `COc1ccc(-c2ccc(/C(C)=N/O)c(O)c2Cl)cc1F`, which Activity (Estrogen receptor beta [1]) is on record?
Its Activity is 0.002%.

With `O/N=C/c1cc(-c2ccc(O)cc2)ccc1O` as the compound, how does the Activity (Estrogen receptor beta [1]) read?
The Activity was 2.64%.

What about the EC50 (Estrogen receptor beta [3]) of the same compound?
The EC50 was 10 nM.

What about the EC50 (Estrogen receptor) of the same compound?
The EC50 was 17 nM and 10 nM.

What about the Ratio (Homo sapiens) of the same compound?
Its Ratio is 41.

How did the Activity (Estrogen receptor beta [1]) turn out when `C/C(=N\O)c1ccc(-c2ccc(O)cc2)c(Cl)c1O` was run?
Its Activity is 0.123%.

What about the Ratio (Homo sapiens) of the same compound?
Its Ratio is 10.

Which Activity (Estrogen receptor beta [1]) does the source give for `COc1ccc(-c2ccc(/C=N/O)c(O)c2Cl)cc1F` here?
The Activity was 0.011%.

What about the Ratio (Homo sapiens) of the same compound?
The Ratio was 1.8.

`COc1ccc(-c2ccc(/C(C)=N/O)c(O)c2Cl)cc1` was tested. Which Activity (Estrogen receptor beta [1]) did it give?
Its Activity is 0.002%.

Which Activity (Estrogen receptor beta [1]) does the source give for `O/N=C/c1ccc(-c2ccc(O)cc2)cc1O` here?
The Activity was 0.553%.

What about the Ratio (Homo sapiens) of the same compound?
The Ratio was 79.

Which results are given for `COc1ccc(-c2ccc(O)c(/C=N/O)c2)cc1`?
Activity (Estrogen receptor beta [1]): 0.011%; Ratio (Homo sapiens): 3.7
